Experimental data reported in US20250034531A1, “METHOD FOR PRODUCING STEM CELLS” (priority 2021, published 2025).

Assays:
Vγ9 gene = conditions: genomic DNA of the iPS cells; γδT cells as positive control; FIG. 4
Procedure: iPS cells were induced in the same manner as in Example 1, except that HMBPP in the HMBPP-containing medium was changed to 5 μL of zoledronic acid (Zol, Sigma-Aldrich Co., LLC).

[1] = test system: Human peripheral blood mononuclear cells; conditions: 10 nmol/L in RPMI 1640 medium with IL-2 added daily; KLF4, OCT3/4, SOX2, c-MYC by CytoTune-iPS 2.0; 14th day; FIG. 2
Procedure: Human peripheral blood mononuclear cells were put into the culture medium, and a culture medium containing about 1×10^6 monocytes was put into a 24-well plate (1st day). 1 μL of 20 μg/mL IL-2 was added to the culture medium every day. On the third day, the culture medium containing the cells was recovered from the plates, the culture medium was centrifugally separated, and the supernatant was removed. Then, 2 mL of a new HMBPP-containing medium was added to the cells, and 1 mL was put into each of two wells of a 24-well plate.
On the 6th day, the culture medium containing the cells was recovered from the plates, the culture medium was centrifugally separated, and the supernatant was removed. Then, an HMBPP-containing medium was added to the cells, and a culture medium containing 2×10^4 monocytes was put into a 96-well plate. KLF4, OCT3/4, SOX2, and c-MYC were introduced into the cells by using CytoTune-iPS 2.0 (Thermo Fisher Scientific, Inc.). The multiplicity of infection (MOI) was adjusted to be 20 to 30.
On the 7th day, the culture medium containing the cells recovered from the 96-well plate were added with a fresh HMBPP-containing medium and put into a 6-well plate. On the 8th, 10th, and 12th days, a stem cell culture medium (Stem Fit, Ajinomoto Co., Inc.) was added thereto, and thereafter, the culture medium was replaced using the stem cell culture medium.

C/C(=C\COP(=O)(O)OP(=O)(O)O)CO [HMBPP, (E)-4-hydroxy-3-methyl-but-2-enyl pyrophosphate]
rearranged Vγ9 gene having the J1/J2 gene in the established iPS cells (Vγ9 gene): have a Vγ9 gene that has undergone rearrangement | colonies of iPS cells formed [1]: a plurality of colonies of iPS cells has been formed
